Measurements published in US9896551B2, “Phosphaphenanthrene-based compound and related preparation method and application” (Elite Electronic Material(Zhongshan) Co., Ltd., priority 2015, dated 2018).

Columns and labels:
Type in all cases: physicochemical
[1] = Test Example 1: solvent compatibility, observed by naked eyes; details: for Compatibility in solvent (precipitation, appearance of solution): stand for 12 hours; for Compatibility in solvent (solubility, appearance of solution): the initial state
Description: The phosphaphenanthrene-based compound of the embodiment 2, the conventional phosphaphenanthrene-based compound of the comparison 1 and the conventional phosphaphenanthrene-based compound of the comparison 2 are used as test samples of the test example 1. The test samples are respectively dissolved in toluene, methyl ethyl ketone, and acetone, so as to give a test to the compatibilities of the test samples in these solvents.

[2] = Dissolution of the phosphaphenanthrene-based compound in different solvents; design: key: 1: “easily soluble”, which means the solute is dissolved with stirring at room temperature and the solution is clear; “soluble”, which means the solute is dissolved with stirring when being heated up to 120° C. and the solution is clear; 3: “insoluble”, which means the solute is not dissolve even being heated and stirred; details: about 5 grams in about 30 ml
Procedure: (§1) In addition, about 5 grams per serving of the phosphaphenanthrene-based compound are weighed and added to about 30 ml of solvents respectively. Stir with or without heating the solution to dissolve the solute. Observe the dissolution of the phosphaphenanthrene-based compound in different solvents, and the results are shown in Table 1, wherein the numeral “1” represents “easily soluble”, which means the solute is dissolved with stirring at room temperature and the solution is clear; the numeral “2” represents “soluble”, which means the solute is dissolved with stirring when being heated up to 120° C. and the solution is clear; the numeral “3” represents “insoluble”, which means the solute is not dissolve even being heated and stirred.
In addition, about 5 grams per serving of the phosphaphenanthrene-based compound (as shown in formula (XVI)) are weighed and added to about 30 ml of solvents respectively. Stir with or without heating to dissolve the solute. Observe dissolution of the phosphaphenanthrene-based compound in different solvents, and the results are shown in Table 2, wherein the numeral “1” represents “easily soluble”, which means the solute is dissolved with stirring at room temperature and the solution is clear; the numeral “2” represents “soluble”, which means the solute is dissolved with stirring when being heated up to […] and the solution is clear; the numeral “3” represents “insoluble”, which means the solute is not dissolve even being heated and stirred.

[3] = as above; design: key: 1: “easily soluble”, which means the solute is dissolved with stirring at room temperature and the solution is clear; “soluble”, which means the solute is dissolved with stirring when being heated up to […] and the solution is clear; 3: “insoluble”, which means the solute is not dissolve even being heated and stirred; details: Methyl ethyl ketone; about 5 grams in about 30 ml
Procedure: as §1
In addition, about 5 grams per serving of the phosphaphenanthrene-based compound (as shown in formula (XVI)) are weighed and added to about 30 ml of solvents respectively. Stir with or without heating to dissolve the solute. […]

For C=Cc1ccc(COc2ccc(OCc3ccc(C=C)cc3)c(P3(=O)Oc4ccccc4-c4ccccc43)c2)cc1 (stereo not drawn) [Comparison 1], which “Compatibility in solvent (precipitation, appearance of solution)” value ([1]; Acetone) is on record?
The value was “Precipitated”.

And the “Compatibility in solvent (solubility, appearance of solution)” value ([1]; Acetone)?
Its value is “Soluble, clear”.

What about the “Compatibility in solvent (precipitation, appearance of solution)” value ([1]; Methyl ethyl ketone) of the same compound?
Its value is “Precipitated”.

And the “Compatibility in solvent (solubility, appearance of solution)” value ([1]; Methyl ethyl ketone)?
The value was “Soluble, clear”.

And the “Compatibility in solvent (precipitation, appearance of solution)” value ([1]; Toluene)?
The value was “No”.

What about the “Compatibility in solvent (solubility, appearance of solution)” value ([1]; Toluene) of the same compound?
Its value is “Soluble, clear”.

For C=Cc1ccc(COc2ccc(-c3ccc(OCc4ccc(C=C)cc4)c(P4(=O)Oc5ccccc5-c5ccccc54)c3)cc2P2(=O)Oc3ccccc3-c3ccccc32)cc1 (stereo not drawn) [Comparison 2], which “Compatibility in solvent (precipitation, appearance of solution)” value ([1]; Acetone) is on record?
Its value is “Precipitated”.

And the “Compatibility in solvent (solubility, appearance of solution)” value ([1]; Acetone)?
Its value is “Soluble, clear”.

What about the “Compatibility in solvent (precipitation, appearance of solution)” value ([1]; Methyl ethyl ketone) of the same compound?
Its value is “Precipitated”.

What about the “Compatibility in solvent (solubility, appearance of solution)” value ([1]; Methyl ethyl ketone) of the same compound?
Its value is “Soluble, clear”.

What about the “Compatibility in solvent (precipitation, appearance of solution)” value ([1]; Toluene) of the same compound?
Its value is “No”.

What about the “Compatibility in solvent (solubility, appearance of solution)” value ([1]; Toluene) of the same compound?
Its value is “Soluble, clear”.

For O=P1(C(O)c2ccc(C(O)P3(=O)Oc4ccccc4-c4ccccc43)cc2)Oc2ccccc2-c2ccccc21 (stereo not drawn) [Embodiment 1], which Dissolution ([2]; 1-Methoxy-2-propyl acetate (PMA)) is on record?
The Dissolution was 3.

And the Dissolution ([2]; Cyclohexanone (CYC))?
The Dissolution was 3.

And the Dissolution ([2]; Dimethylacetamide (DMAC))?
The Dissolution was 3.

And the Dissolution ([2]; Methanol (MT))?
Its Dissolution is 3.

What about the Dissolution ([2]; Methyl ethyl ketone (MEK)) of the same compound?
The Dissolution was 3.

And the Dissolution ([2]; N,N-Dimethylformamide (DMF))?
Its Dissolution is 2.

What about the Dissolution ([2]; Proprylene glycol monomethyl ether (PM)) of the same compound?
The Dissolution was 3.

What about the Dissolution ([2]; Toluene (TL)) of the same compound?
Its Dissolution is 3.

For C=Cc1ccc(COC(c2ccc(C(OCc3ccc(C=C)cc3)P3(=O)Oc4ccccc4-c4ccccc43)cc2)P2(=O)Oc3ccccc3-c3ccccc32)cc1 (stereo not drawn) [Embodiment 2], which Dissolution [3] is on record?
The Dissolution was 2.

And the Dissolution ([2]; Dimethylacetamide)?
The Dissolution was 1.

What about the Dissolution ([2]; Dimethylformamide) of the same compound?
Its Dissolution is 1.

And the Dissolution ([2]; Toluene)?
Its Dissolution is 1.

And the “Compatibility in solvent (precipitation, appearance of solution)” value ([1]; Acetone)?
The value was “No”.

And the “Compatibility in solvent (solubility, appearance of solution)” value ([1]; Acetone)?
The value was “Soluble, clear”.

What about the “Compatibility in solvent (precipitation, appearance of solution)” value ([1]; Methyl ethyl ketone) of the same compound?
The value was “No”.

And the “Compatibility in solvent (solubility, appearance of solution)” value ([1]; Methyl ethyl ketone)?
The value was “Soluble, clear”.

What about the “Compatibility in solvent (precipitation, appearance of solution)” value ([1]; Toluene) of the same compound?
Its value is “No”.

What about the “Compatibility in solvent (solubility, appearance of solution)” value ([1]; Toluene) of the same compound?
The value was “Soluble, clear”.
